Assay results published in US10604554B2, “Double-acylated GLP-1 derivatives” (Novo Nordisk A/S, priority 2012, dated 2020).
pEC50, pIC50: −log10 of the molar value. Read-outs that look alike come from different tables or passages of the source.

What was measured:
human GLP-1 receptor [1] = molecular target: T1, human GLP-1 receptor (Homo sapiens, UniProt P43220); experiment: GLP-1 receptor binding (SPA, displacement of 125I-GLP-1)
T1 construct: expressed in transfected cells; host or cells: BHK cells, clone FCW467-12A/KZ10-1 (parent line BHKTS13), further transfected with CRE luciferase
T1 sequence (P43220 24-463): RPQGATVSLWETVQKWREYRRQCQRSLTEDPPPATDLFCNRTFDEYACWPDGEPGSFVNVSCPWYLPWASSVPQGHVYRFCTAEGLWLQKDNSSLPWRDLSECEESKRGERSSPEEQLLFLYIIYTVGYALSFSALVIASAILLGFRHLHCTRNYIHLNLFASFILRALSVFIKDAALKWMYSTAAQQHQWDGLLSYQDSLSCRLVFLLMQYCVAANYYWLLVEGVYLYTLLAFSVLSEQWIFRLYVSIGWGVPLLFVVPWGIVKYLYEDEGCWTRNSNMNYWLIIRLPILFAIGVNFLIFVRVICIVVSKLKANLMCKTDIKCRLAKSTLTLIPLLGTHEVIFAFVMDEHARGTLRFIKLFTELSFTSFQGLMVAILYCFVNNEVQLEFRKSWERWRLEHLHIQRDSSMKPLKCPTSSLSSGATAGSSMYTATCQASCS
In short: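 Membranes from a stably transfected hamster cell line, 5-10 ug protein/sample, with WGA SPA beads and [125I]-GLP-1(7-36)NH2 at 0.06 nM final. Incubated 120 min at 30 °C with shaking, then counted.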

[2] = Pharmacokinetic (PK) study in rat; settings: male, Sprague Dawley, in vivo, iv, 6 nmol/kg
[3] = Pharmacokinetic (PK) study in minipig; settings: male, Göttingen, in vivo, iv
Method: (§1) The purpose of this study is to determine the protraction in vivo of the GLP-1 derivatives after i.v. administration to minipigs, i.e. the prolongation of their time of action. This is done in a pharmacokinetic (PK) study, where the terminal half-life of the derivative in question is determined. By terminal half-life is generally meant the period of time it takes to halve a certain plasma concentration, measured after the initial distribution phase.
(§2) Study A: Male Göttingen minipigs were obtained from Ellegaard Göttingen Minipigs (Dalmose, Denmark) approximately 7-14 months of age and weighing from approximately 16-35 kg were used in the studies. The minipigs were housed individually and fed restrictedly once or twice daily with SDS minipig diet (Special Diets Services, Essex, UK). After at least 2 weeks of acclimatisation two permanent central venous catheters were implanted in vena cava caudalis or cranialis in each animal. The animals were allowed 1 week recovery after the surgery, and were then used for repeated pharmacokinetic studies with a suitable wash-out period between successive GLP-1 derivative dosings.
(§3) The animals were fasted for approximately 18 h before dosing and from 0 to 4 h after dosing, but had ad libitum access to water during the whole period.
(§4) The GLP-1 derivatives were dissolved in 50 mM sodium phosphate, 145 mM sodium chloride, 0.05% tween 80, pH 7.4 to a concentration of usually from 20-60 nmol/ml. […] Blood samples (for example 0.8 ml) were collected in EDTA buffer (8 mM) and then centrifuged at 4° C. and 1942 G for 10 minutes.
(§5) Study B: Male Göttingen minipigs were obtained from Ellegaard Göttingen Minipigs (Dalmose, Denmark) approximately 5 months of age and weighing from approximately 9 kg were used in the studies. The minipigs were housed in pens with straw as bedding, six together in each pen and fed restrictedly once or twice daily with Altromin 9023 minipig diet (Chr. Petersen A/S, DK-4100 Ringsted) or Standard SMP(E) minipig diet (Special Diet Services (SDS), UK). The pigs were used for repeated pharmacokinetic studies with a suitable wash-out period between successive GLP-1 derivative dosings.
(§6) The GLP-1 derivatives were dissolved in 50 mM sodium phosphate, 145 mM sodium chloride, 0.05% tween 80, pH 7.4 to a concentration of usually from 20-60 nmol/ml. Intravenous injections (the volume corresponding to usually 2 nmol/kg, for example 0.1 ml/kg) of the compounds were given as intravenous injections via a Venflon inserted in an ear vein, while they are placed unanaesthetised in a sling. The dose volume was 0.1 ml/kg, and blood was sampled at predefined time points for up till 17 days post dosing (samples was taken with syringe from a jugular vein).
(§7) Individual plasma concentration-time profiles were analyzed by a non-compartmental model in Phoenix WinNonLin ver. […] (Pharsight Inc., Mountain View, Calif., USA), and the resulting terminal half-lives (harmonic mean) determined.

human GLP-1 receptor [4] = molecular target: T1, human GLP-1 receptor; experiment: In vitro potency (CRE luciferase; whole cells); type: cell-based; parameters: EC50/pM (ratio 1% HSA/0% HSA): unit not given here; settings: for pEC50: BHK cells
In short: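 Stably transfected BHK cells carrying human GLP-1R and a CRE–firefly luciferase reporter, 5×10^3 cells/well in assay medium, run with 0% or 1% HSA in assay buffer.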

in vivo [5] = settings: male, Göttingen, minipig, iv
Method: as §1, §2, §3, §4, §5, §6, §7

in vivo [6] = settings: male, Sprague Dawley, rat, iv
[7] = Receptor binding affinity IC50 (low HSA), 0.001% HSA (low albumin)
[8] = In vitro potency (CRE luciferase) EC50 (0% HSA), 0% HSA
[9] = In vitro potency (CRE luciferase) EC50 (1% HSA), 1% HSA

Compound | pIC50 (human GLP-1 receptor [1]; [7]) | half-life [2] | half-life [3] | pEC50 (human GLP-1 receptor [4]; [8]) | EC50/pM (ratio 1% HSA/0% HSA) (human GLP-1 receptor [4]; ratio of EC50 at 1% HSA to EC50 at 0% HSA) | pIC50 (human GLP-1 receptor [1]; Receptor binding affinity IC50 (high HSA), 2.0% HSA (high albumin)) | pEC50 (human GLP-1 receptor [4]; [9]) | pIC50 (human GLP-1 receptor [1]; 0.001% HSA (low albumin), read-out: Receptor binding affinity IC50 (low HSA)) | IC50 (high HSA) (human GLP-1 receptor [1]; Receptor binding affinity IC50 (high HSA), 2.0% HSA (high albumin), heading: Receptor binding affinity IC50) | half-life (in vivo [5]) | half-life (in vivo [6]) | pEC50 (human GLP-1 receptor [4]; 0% HSA, read-out: In vitro potency (CRE luciferase) EC50 (0% HSA))
CC[C@H](C)[C@H](NC(=O)[C@H](Cc1ccccc1)NC(=O)[C@H](CCC(=O)O)NC(=O)[C@H](CCCCNC(=O)[C@@H](N)CCCCNC(=O)COCCOCCNC(=O)COCCOCCNC(=O)CC[C@H](NC(=O)CCCCCCCCCCOc1ccc(C(=O)O)cc1)C(=O)O)NC(=O)[C@H](C)NC(=O)[C@H](C)NC(=O)[C@H](CCC(N)=O)NC(=O)[C@H](CCC(=O)O)NC(=O)[C@H](CCC(=O)O)NC(=O)[C@H](CC(C)C)NC(=O)[C@H](Cc1ccc(O)cc1)NC(=O)[C@H](CO)NC(=O)[C@H](CO)NC(=O)[C@@H](NC(=O)[C@H](CC(=O)O)NC(=O)[C@H](CO)NC(=O)[C@@H](NC(=O)[C@H](Cc1ccccc1)NC(=O)[C@@H](NC(=O)CNC(=O)[C@H](CCC(=O)O)NC(=O)C(C)(C)NC(=O)[C@@H](N)Cc1c[nH]cn1)[C@@H](C)O)[C@@H](C)O)C(C)C)C(=O)N[C@@H](C)C(=O)N[C@@H](Cc1c[nH]c2ccccc12)C(=O)N[C@@H](CC(C)C)C(=O)N[C@H](C(=O)N[C@@H](CCCNC(=N)N)C(=O)NCC(=O)N[C@@H](CCCNC(=N)N)C(=O)N[C@@H](CCCCNC(=O)[C@@H](N)CCCCNC(=O)COCCOCCNC(=O)COCCOCCNC(=O)CC[C@H](NC(=O)CCCCCCCCCCOc1ccc(C(=O)O)cc1)C(=O)O)C(=O)O)C(C)C [Example 22] | 9.59 | 15 h | 59 h | 11.26 | 13 |  |  |  |  |  |  | 
CC[C@H](C)[C@H](NC(=O)[C@H](Cc1ccccc1)NC(=O)[C@H](CCC(=O)O)NC(=O)[C@H](CCCCNC(=O)[C@H](CCCCNC(=O)[C@H](CCCCNC(=O)CC[C@H](NC(=O)CCCCCCCCCCOc1ccc(C(=O)O)cc1)C(=O)O)N(C)C)N(C)C)NC(=O)[C@H](C)NC(=O)[C@H](C)NC(=O)[C@H](CCC(N)=O)NC(=O)CNC(=O)[C@H](CCC(=O)O)NC(=O)[C@H](CC(C)C)NC(=O)[C@H](Cc1ccc(O)cc1)NC(=O)[C@H](CO)NC(=O)[C@H](CO)NC(=O)[C@@H](NC(=O)[C@H](CC(=O)O)NC(=O)[C@H](CO)NC(=O)[C@@H](NC(=O)[C@H](Cc1ccccc1)NC(=O)[C@@H](NC(=O)CNC(=O)[C@H](CCC(=O)O)NC(=O)C(C)(C)NC(=O)CCc1c[nH]cn1)[C@@H](C)O)[C@@H](C)O)C(C)C)C(=O)N[C@@H](C)C(=O)N[C@@H](Cc1c[nH]c2ccccc12)C(=O)N[C@@H](CC(C)C)C(=O)N[C@H](C(=O)N[C@@H](CCCNC(=N)N)C(=O)NCC(=O)N[C@@H](CCCNC(=N)N)C(=O)N[C@@H](CCCCNC(=O)[C@H](CCCCNC(=O)[C@H](CCCCNC(=O)CC[C@H](NC(=O)CCCCCCCCCCOc1ccc(C(=O)O)cc1)C(=O)O)N(C)C)N(C)C)C(=O)O)C(C)C [Example 29, N^ε26-[(2S)-6-[[(2S)-6-[[(4S)-4-carboxy-4-[11-(4-carboxyphenoxy)undecanoylamino]butanoyl]amino]-2-(dimethylamino)hexanoyl]amino]-2-(dimethylamino)hexanoyl], N^ε37-[(2S)-6-[[(2S)-6-[[(4S)-4-carboxy-4-[11-(4-carboxyphenoxy)undecanoylamino]butanoyl]amino]-2-(dimethylamino)hexanoyl]amino]-2-(dimethylamino)hexanoyl]-[Imp^7,Aib^8,Arg^34,Lys^37]-GLP-1-(7-37)-peptide] | 9.26 | 19 h | 82 h | 11.10 |  | 7.25 | 9.37 |  |  |  |  | 
CC[C@H](C)[C@H](NC(=O)[C@H](Cc1ccccc1)NC(=O)[C@H](CCC(=O)O)NC(=O)[C@H](CCCCNC(=O)[C@@H](N)CCCCNC(=O)COCCOCCNC(=O)CC[C@H](NC(=O)CC[C@H](NC(=O)CCCCCCCCCCCCCCC(=O)O)C(=O)O)C(=O)O)NC(=O)[C@H](C)NC(=O)[C@H](C)NC(=O)[C@H](CCC(N)=O)NC(=O)CNC(=O)[C@H](CCC(=O)O)NC(=O)[C@H](CC(C)C)NC(=O)[C@H](Cc1ccc(O)cc1)NC(=O)[C@H](CO)NC(=O)[C@H](CO)NC(=O)[C@@H](NC(=O)[C@H](CC(=O)O)NC(=O)[C@H](CO)NC(=O)[C@@H](NC(=O)[C@H](Cc1ccccc1)NC(=O)[C@@H](NC(=O)CNC(=O)[C@H](CCC(=O)O)NC(=O)C(C)(C)NC(=O)[C@@H](N)Cc1c[nH]cn1)[C@@H](C)O)[C@@H](C)O)C(C)C)C(=O)N[C@@H](C)C(=O)N[C@@H](Cc1c[nH]c2ccccc12)C(=O)N[C@@H](CC(C)C)C(=O)N[C@H](C(=O)N[C@@H](CCCNC(=N)N)C(=O)NCC(=O)N[C@@H](CCCNC(=N)N)C(=O)N[C@@H](CCCCNC(=O)[C@@H](N)CCCCNC(=O)COCCOCCNC(=O)CC[C@H](NC(=O)CC[C@H](NC(=O)CCCCCCCCCCCCCCC(=O)O)C(=O)O)C(=O)O)C(=O)O)C(C)C [Example 11, N^ε26-[(2S)-2-amino-6-[[2-[2-[2-[[(4S)-4-carboxy-4-[[(4S)-4-carboxy-4-(15-carboxypentadecanoylamino)butanoyl]amino]butanoyl]amino]ethoxy]ethoxy]acetyl]amino]hexanoyl], N^ε37-[(2S)-2-amino-6-[[2-[2-[2-[[(4S)-4-carboxy-4-[[(4S)-4-carboxy-4-(15-carboxypentadecanoylamino)butanoyl]amino]butanoyl]amino]ethoxy]ethoxy]acetyl]amino]hexanoyl]-[Aib^8,Arg^34, Lys^37]-GLP-1-(7-37)-peptide] |  |  |  |  |  |  | 8.80 | 9.13 | 522 nM | 95 h | 28 h | 11.14
